Laboratory results: publication PMC4830886, “Extended evaluation on the ES-D3 cell differentiation assay combined with the BeWo transport model, to predict relative developmental toxicity of triazole compounds” (Archives of Toxicology, 2015)
Marks after values point to notes of the source that are not given here.

Legend:
[1] = tested on: BeWo b30 cell layers; assay: in vitro BeWo transport model (placental transfer); settings: BeWo cells, 50 μM (25 nmol) apical, at 90 min
Experimental: (§1) To study placental transfer of test compounds, BeWo transport experiments were performed as described previously (Li et al. [2013]). Briefly, BeWo b30 cells (passages 27–45) were cultured in DMEM (Zwijndrecht, The Netherlands), supplemented with 10 % (v/v) heat-inactivated FCS (HyClone-Perbio, Etten-Leur, The Netherlands), 10,000 U/ml penicillin, 10 mg/ml streptomycin and 2 mM L-glutamine. The cells were seeded at a density of 1 × 10^5 cells/cm^2 on transwell® polycarbonate membranes (12 mm diameter, 0.4 μm pore size) (VWR International BV, Amsterdam, The Netherlands) coated with human placental collagen. The medium (0.5-ml apical compartment, 1.5-ml basolateral compartment) was replaced daily. At day 6 postseeding, the BeWo b30 cell layers were used for transport experiments. The barrier-forming capacity of the BeWo cell layers was evaluated by measuring the transepithelial electrical resistance (TEER) of the cell monolayer using a Millicell ERS-2 Volt-Ohm Meter (Millipore, USA) at day 6 postseeding as described previously (Li et al. [2013]). Only the cell layers showing TEER values between 80 and 100 Ω cm^2 were used for transport experiments.
(§2) Transport experiments were initiated by adding 0.5 ml of transport buffer Hank’s balanced salt solution (HBSS, Invitrogen, Breda, The Netherlands) containing the test compound, being 0594, 0595, 0596, 0599, 0600 and 0618, dissolved in DMSO (final solvent concentration 0.5 % DMSO), at concentration of 50 μM, to the apical compartment and 1.5 ml transport buffer to the basolateral compartment. Subsequently, the plate was incubated in a humidified atmosphere with 5 % CO2 at 37 °C. After 15, 30, 60 and 90 min, a sample of 0.2 ml was taken from the basolateral compartment and replaced by an equal volume of transport buffer. At the end of each experiment, a 0.2-ml sample was also taken from the apical compartment. Subsequently, the filters with the BeWo b30 cell layers were washed three times with PBS, cut out of the insert, dissolved in 0.25 ml 65 % (v/v) methanol and sonificated for 15 min in a Bandelin Sonorex RK100 (Berlin, Germany) in order to determine the amount of compound accumulated in the cells. After each experiment, mass balance calculations were performed. In each transport study, amoxicillin and antipyrine were included as control and reference compounds. Amoxicillin transport was included to assess for monolayer integrity since it is a compound known to be transported only to a limited extent across the placenta, whereas antipyrine was included as a control for optimal transport and a reference compound to enable calculation of relative transport rates (Li et al. [2013]). The transport of the six test compounds, as well as the reference compounds amoxicillin and antipyrine, through the permeable membrane of the transwell filter in the absence of BeWo cells was determined as well. […] For each test compound, three independent experiments were performed, with three technical replicates per experiment.
(§3) Samples were analyzed using high-performance liquid chromatography (HPLC) to quantify the amount of test compound in order to determine the transport rate and to perform mass balance calculations. The HPLC system used consisted of a Waters (Milford, MA) 600 controller and a 600 pump, equipped with a photodiode array detector set to record absorption of wavelengths between 200 and 400 nm. A Waters 717 plus autosampler was used for sample injection. The temperature of the autosampler was kept at 7 °C.
(§4) For analysis of all compounds, 50 μl sample was injected to a C18 5 μm reverse-phase column (150 mm × 4.6 mm I.D.) with a guard column (7.5 mm × 4.6 mm I.D.) (Alltech, Bergen op Zoom, The Netherlands). The mobile phase used for analysis of all the test compounds consisted of (A) 0.1 % trifluoroacetic acid in nanopure water and (B) HPLC-grade acetonitrile. Elution was at a flow rate of 0.8 ml/min, starting at 22 % B with a linear increase to 100 % B in 8 min.

[2] = in vitro BeWo transport model (placental transfer); settings: human
Experimental: as §1, §2, §3, §4

[3] = tested on: time-mated Wistar rats; assay: in vivo maternal and prenatal developmental toxicity screening study (OECD 414 principles); settings: rat
Text: The major differences to a full guideline study were the smaller sample size, using 9–10 instead of at least 16 pregnant rats, per test substance.
The animals were paired by the breeder [time-mated Wistar rats, Crl: WI (Han), Charles River Laboratories, Sulzfeld, Germany], between 10 and 12 weeks of age, and supplied on the day of evidence of mating; this day is referred to as gestational day (GD) 0 and following day as GD 1. […] This strain has been extensively used, both in our laboratory and elsewhere, and is sensitive to reproductive toxicants. All rats were housed individually in Makrolon cages with Lignocel PS 14 fibers dust-free bedding and wooden enrichment blocks. The cages were kept in climate-controlled rooms at 20–24 °C with a relative humidity of 30–70 %, an air exchange rate of 15 times per hour and a 12-h light/dark cycle. Diet (Ground Kliba SA, Switzerland) and tap water were provided ad libitum. In-life data (mortality, clinical signs, body weights and food consumption) were recorded throughout the study, but presented only if relevant for the interpretation of prenatal developmental effects.
The test compounds administered by gavage were administrated between 100 and 600 mg/kg bw/day using the vehicle 1 % carboxymethylcellulose in deionized water. The standard dose volume was 10 ml/kg bw.
On GD 20, the surviving dams were anesthetized with isoflurane, killed by decapitation and examined macroscopically. For each dam, the uterus was opened and the number, distribution and classification of implantation sites (live fetus, early and late fetal resorptions, and dead fetus) were determined. The fetuses were removed, sexed and fetal body weight determined. Gross pathological examination of the fetuses, including assessment of abnormalities of the fetal membranes, placentas, amniotic fluid and umbilical cord, was performed. Subsequently, all fetuses were killed by injection of pentobarbital. […] The other half of the fetuses of each dam was fixed in Harrison’s fluid. […] A permanent structural change that is likely to affect adversely the survival or health was assessed as malformation. A change that also occurs in the fetuses of control animals and/or is unlikely to affect adversely the survival or health was assessed as variation. This includes delays in growth or morphogenesis that have otherwise followed a normal pattern of development.
Maternal toxicity was classified as slight if body weight and/or carcass weight reduction is not above 10 %, moderate if body weight and/or carcass weight reduction is between 10 and 20 % and severe if body weight and/or carcass weight reduction is above 20 %. All the in vivo data are expressed as the affected fetuses/litter.

[4] = female, Wistar Crl:WI(Han), in vivo
[5] = gavage GD 6–19, 600 mg/kg, affected fetuses/litter
[6] = gavage GD 6–19, 200 mg/kg, affected fetuses/litter
[7] = 1 = highest potential, 6 = lowest, among the six test compounds
[8] = gavage GD 6–19, 100 mg/kg, affected fetuses/litter

SMILES	Intracellular accumulation (% of added amount) [1]	Papp at 30 min, 50 μM [2]	Ranking (in vivo prenatal developmental toxicity potency) [3, 4]	Early resorption (%) ([3]; gavage GD 6–19, 200 mg/kg)	Fetal weight (%) ([3]; gavage GD 6–19, 200 mg/kg)	Late resorption (%) ([3]; gavage GD 6–19, 200 mg/kg)	Maternal toxicity classification ([3]; gavage GD 6–19, 200 mg/kg)	Maternal toxicity findings ([3]; gavage GD 6–19, 200 mg/kg)	Placenta weight (%) ([3]; gavage GD 6–19, 200 mg/kg)	Postimplantation loss (%) ([3]; gavage GD 6–19, 200 mg/kg)	Total number of fetuses ([3]; gavage GD 6–19, 200 mg/kg)	Early resorption (%) ([3]; gavage GD 6–19, 600 mg/kg)	Fetal weight (%) ([3]; gavage GD 6–19, 600 mg/kg)	Late resorption (%) ([3]; gavage GD 6–19, 600 mg/kg)	Placenta weight (%) ([3]; gavage GD 6–19, 600 mg/kg)	Postimplantation loss (%) ([3]; gavage GD 6–19, 600 mg/kg)	Total number of fetuses ([3]; gavage GD 6–19, 600 mg/kg)	Malformation, Total (skeletal) [3, 6]	Malformation, Total (skeletal) [3, 5]	Ranking (in vivo prenatal developmental toxicity potency) [3, 7]	also measured
OC(c1cccnc1)c1c(-c2ccc(F)cc2F)noc1-c1ccc(Cl)cc1F (stereo not drawn) [compound 0594, [5-(4-Chloro-2-fluoro-phenyl)-3-(2,4-difluoro-phenyl)-isoxazol-4-yl]-pyridin-3-yl-methanol]	24 % of added amount	11.5 ± 2.6 ×10⁻⁶ cm/s	4	5.9%	107%	1.9%	No	No	110%	7.8%	99	14.1%	101%	0.8%	116%	14.9%	98	–	–	–	Bent femur [3, 5]: Bent femur 12.5%
OC(c1cccnc1)c1c(-c2ccc(F)cc2F)csc1-c1ccc(F)cc1F (stereo not drawn) [compound 0595, [2,4-Bis-(2,4-difluoro-phenyl)-thiophen-3-yl]-pyridin-3-yl-methanol]	79 % of added amount	3 ± 0.4 ×10⁻⁶ cm/s	6	21.9%	102%	2.0%	No	NAD	117%	24%	74	100%	–	0.0%	–	100.0** %	0	Total 0%	–	–	Maternal body weight (BW) ([3]; gavage GD 6–19, 600 mg/kg): 74%; Maternal carcass weight (CW) ([3]; gavage GD 6–19, 600 mg/kg): 89%; Maternal mortality ([3]; gavage GD 6–19, 600 mg/kg): 30%; teratogenic potential ([3]; overall assessment of the in vivo study): no teratogenic potential
CC(c1nc(-c2ccc(C#N)cc2)cs1)C(O)(Cn1cncn1)c1ccc(F)cc1 (stereo not drawn) [compound 0596, 4-{2-[2-(4-Fluoro-phenyl)-2-hydroxy-1-methyl-3-[1,2,4]triazol-1-yl-propyl]-thiazol-4-yl}-benzonitrile]	12 % of added amount	24.4 ± 2.7 ×10⁻⁶ cm/s	–	2.9%	108%	0.0%	No	NAD	127** %	2.9%	109	7.7%	105%	0.8%	133%	8.6%	102	–	Total 100 %**	2	Misshapen basisphenoid [3, 6]: 30.6%; Misshapen cervical arch [3, 6]: 14.3%; Severely malformed skull bones [3, 6]: 5.3%; Maternal toxicity classification ([3]; gavage GD 6–19, 600 mg/kg): No; Maternal toxicity findings ([3]; gavage GD 6–19, 600 mg/kg): NAD; Misshapen basisphenoid [3, 5]: 13%; Misshapen cervical arch [3, 5]: 70.2%; Severely malformed skull bones [3, 5]: 82.8%
CC(c1nc(-c2ccc(C#N)cc2)cs1)C(O)(Cn1ccnc1)c1ccc(F)cc1 (stereo not drawn) [compound 0599, 4-[2-[2-(4-Fluorophenyl)-2-hydroxy-3-imidazol-1-yl-1-methyl-propyl]thiazol-4-yl]benzonitrile]	22 % of added amount	18.4 ± 1.1 ×10⁻⁶ cm/s	–	–	–	–	–	–	–	–	–	–	–	–	–	–	–	–	–	1	Early resorption (%) ([3]; gavage GD 6–19, 100 mg/kg): 7.8%; Fetal weight (%) ([3]; gavage GD 6–19, 100 mg/kg): 102%; Late resorption (%) ([3]; gavage GD 6–19, 100 mg/kg): 0.8%; Maternal carcass weight (CW) ([3]; gavage GD 6–19, 100 mg/kg): 91%; Placenta weight (%) ([3]; gavage GD 6–19, 100 mg/kg): 116%; Postimplantation loss (%) ([3]; gavage GD 6–19, 100 mg/kg): 8.6%; Total number of fetuses ([3]; gavage GD 6–19, 100 mg/kg): 99; Maternal body weight change BWC (6–8) ([3]; gavage GD 6–19, 100 mg/kg, GD 6–8): 66%; Maternal food consumption FC (6–20) ([3]; gavage GD 6–19, 100 mg/kg, GD 6–20): > 74%; Malformation, CP (cleft palate) [3, 8]: 10%; Malformation, Total (skeletal) [3, 8]: 100%; Misshapen basisphenoid [3, 8]: 74.2%; Misshapen temporal bone [3, 8]: 85.4%; Small tuberositas deltoidea [3, 8]: 66.3%; Maternal mortality ([3]; gavage GD 6–19, 250 mg/kg): Mortality 100 %**; Total number of fetuses ([3]; gavage GD 6–19, 250 mg/kg): 0
CC1CC(C)OC(Cn2cncn2)(c2ccc(Oc3ccc(Cl)cc3)cc2Cl)O1 (stereo not drawn) [compound 0600, 1-[[2-[2-Chloro-4-(4-chlorophenoxy)phenyl]-4,6-dimethyl-1,3-dioxan-2-yl]methyl]-1,2,4-triazole]	66 % of added amount	7.9 ± 1 ×10⁻⁶ cm/s	3	4.0%	102%	0.0%	No	NAD	105%	4.0%	99	6.0%	102%	1.0%	130%	7.0%	104	Total 0%	81%	–	Malformation, CP (cleft palate) [3, 5]: 5%; Misshapen pterygoid bones [3, 5]: 36.3%; Small tuberositas deltoidea [3, 5]: 48.1%
